Data as given in ChEMBL document CHEMBL3885881, “DrugMatrix”.

Species on record: Rattus norvegicus
Experiment: DrugMatrix - Regimen: Daily Repeat
Format: toxicity, organism-based, Sprague-Dawley
Design: regimen Daily Repeat, gender Male, age 6-8 weeks
Details: in vivo, po, route oral GAVAGE, […]; for ABSOLUTE BASOPHIL / ABSOLUTE EOSINOPHIL / ABSOLUTE LYMPHOCYTE / ABSOLUTE MONOCYTE / ABSOLUTE SEGMENTED NEUTROPHIL / BASOPHIL / EOSINOPHIL / ERYTHROCYTE COUNT / HEMATOCRIT / HEMOGLOBIN / LEUKOCYTE COUNT / LYMPHOCYTE / MEAN CORPUSCULAR HEMOGLOBIN / MEAN CORPUSCULAR HEMOGLOBIN CONCENTRATION / MEAN CORPUSCULAR VOLUME / MONOCYTE / NEUTROPHIL / NUCLEATED RED BLOOD CELLS / PLATELET COUNT: tissue Blood; for ALANINE AMINOTRANSFERASE / ALBUMIN / ALKALINE PHOSPHATASE / ASPARTATE AMINOTRANSFERASE / BLOOD UREA NITROGEN / CARBON DIOXIDE / CHLORIDE / CHOLESTEROL / CREATINE PHOSPHOKINASE / CREATININE / GLUCOSE / LACTATE DEHYDROGENASE / LIPASE / PHOSPHORUS / POTASSIUM / SODIUM / TOTAL BILIRUBIN / TOTAL PROTEIN / URIC ACID: tissue Plasma
[1] = 10 mg/kg, 120 h, dose level Low, time 5 day
[2] = 250 mg/kg, 72 h, dose level High, time 3 day
[3] = 250 mg/kg, 120 h, dose level High, time 5 day

COc1cc(N)c(Cl)cc1C(=O)NC1CCN(CCCOc2ccc(F)cc2)CC1OC (centres undefined) [CISAPRIDE]
ABSOLUTE BASOPHIL [1]: 0 CELLS/uL | ABSOLUTE EOSINOPHIL [1]: 0 CELLS/uL | ABSOLUTE LYMPHOCYTE [1]: 8665 CELLS/uL | ABSOLUTE MONOCYTE [1]: 47.33 CELLS/uL | ABSOLUTE SEGMENTED NEUTROPHIL [1]: 387.67 CELLS/uL | BASOPHIL [1]: 0% | EOSINOPHIL [1]: 0% | ERYTHROCYTE COUNT [1]: 6.01 x10E6/uL | HEMATOCRIT [1]: 36.43% | HEMOGLOBIN [1]: 13.9 G/DL | LEUKOCYTE COUNT [1]: 9.1 x10E3/uL | LYMPHOCYTE [1]: 94.67% | MEAN CORPUSCULAR HEMOGLOBIN [1]: 23.2 pg | MEAN CORPUSCULAR HEMOGLOBIN CONCENTRATION [1]: 38.17 G/DL | MEAN CORPUSCULAR VOLUME [1]: 60.73 fL | MONOCYTE [1]: 0.67% | NEUTROPHIL [1]: 4.67% | NUCLEATED RED BLOOD CELLS [1]: 0.33 /100WBC | PLATELET COUNT [1]: 1215.33 x10E3/uL | ALANINE AMINOTRANSFERASE [1]: 83.67 u/L | ALBUMIN [1]: 4.23 G/DL | ALKALINE PHOSPHATASE [1]: 427.67 u/L | ASPARTATE AMINOTRANSFERASE [1]: 78.33 u/L | BLOOD UREA NITROGEN [1]: 13.67 mg/dL | CARBON DIOXIDE [1]: 35 mmol/L | CHLORIDE [1]: 99.33 MEQ/L | CHOLESTEROL [1]: 86.33 mg/dL | CREATINE PHOSPHOKINASE [1]: 161.33 u/L | CREATININE [1]: 0.16 mg/dL | GLUCOSE [1]: 163 mg/dL | LACTATE DEHYDROGENASE [1]: 134.33 u/L | LIPASE [1]: 11 u/L | PHOSPHORUS [1]: 9.6 mg/dL | POTASSIUM [1]: 5.19 MEQ/L | SODIUM [1]: 143.17 MEQ/L | TOTAL BILIRUBIN [1]: 0.17 mg/dL | TOTAL PROTEIN [1]: 6.1 G/DL | URIC ACID [1]: 0.37 mg/dL | ABSOLUTE BASOPHIL [2]: 0 CELLS/uL | ABSOLUTE EOSINOPHIL [2]: 36.33 CELLS/uL | ABSOLUTE LYMPHOCYTE [2]: 10590.67 CELLS/uL | ABSOLUTE MONOCYTE [2]: 0 CELLS/uL | ABSOLUTE SEGMENTED NEUTROPHIL [2]: 573 CELLS/uL | BASOPHIL [2]: 0% | EOSINOPHIL [2]: 0.33% | ERYTHROCYTE COUNT [2]: 5.39 x10E6/uL | HEMATOCRIT [2]: 32.73% | HEMOGLOBIN [2]: 13.17 G/DL | LEUKOCYTE COUNT [2]: 11.2 x10E3/uL | LYMPHOCYTE [2]: 94.67% | MEAN CORPUSCULAR HEMOGLOBIN [2]: 24.43 pg | MEAN CORPUSCULAR HEMOGLOBIN CONCENTRATION [2]: 40.2 G/DL | MEAN CORPUSCULAR VOLUME [2]: 60.73 fL | MONOCYTE [2]: 0% | NEUTROPHIL [2]: 5% | NUCLEATED RED BLOOD CELLS [2]: 0 /100WBC | PLATELET COUNT [2]: 918 x10E3/uL | ALANINE AMINOTRANSFERASE [2]: 102.67 u/L | ALBUMIN [2]: 3.83 G/DL | ALKALINE PHOSPHATASE [2]: 517.33 u/L | ASPARTATE AMINOTRANSFERASE [2]: 96 u/L | BLOOD UREA NITROGEN [2]: 13 mg/dL | CARBON DIOXIDE [2]: 26 mmol/L | CHLORIDE [2]: 95 MEQ/L | CHOLESTEROL [2]: 89.67 mg/dL | CREATINE PHOSPHOKINASE [2]: 253 u/L | CREATININE [2]: 0.15 mg/dL | GLUCOSE [2]: 137.33 mg/dL | LACTATE DEHYDROGENASE [2]: 118.33 u/L | LIPASE [2]: 12.33 u/L | PHOSPHORUS [2]: 10.77 mg/dL | POTASSIUM [2]: 5.65 MEQ/L | SODIUM [2]: 138.1 MEQ/L | TOTAL BILIRUBIN [2]: 0.17 mg/dL | TOTAL PROTEIN [2]: 5.5 G/DL | URIC ACID [2]: 0.6 mg/dL | ABSOLUTE BASOPHIL [3]: 0 CELLS/uL | ABSOLUTE EOSINOPHIL [3]: 43.33 CELLS/uL | ABSOLUTE LYMPHOCYTE [3]: 8832 CELLS/uL | ABSOLUTE MONOCYTE [3]: 95.67 CELLS/uL | ABSOLUTE SEGMENTED NEUTROPHIL [3]: 595.67 CELLS/uL | BASOPHIL [3]: 0% | EOSINOPHIL [3]: 0.33% | ERYTHROCYTE COUNT [3]: 5.74 x10E6/uL | HEMATOCRIT [3]: 35.13% | HEMOGLOBIN [3]: 13.57 G/DL | LEUKOCYTE COUNT [3]: 9.57 x10E3/uL | LYMPHOCYTE [3]: 92% | MEAN CORPUSCULAR HEMOGLOBIN [3]: 23.67 pg | MEAN CORPUSCULAR HEMOGLOBIN CONCENTRATION [3]: 38.63 G/DL | MEAN CORPUSCULAR VOLUME [3]: 61.23 fL | MONOCYTE [3]: 1% | NEUTROPHIL [3]: 6.67% | NUCLEATED RED BLOOD CELLS [3]: 0.67 /100WBC | PLATELET COUNT [3]: 1240.33 x10E3/uL | ALANINE AMINOTRANSFERASE [3]: 89 u/L | ALBUMIN [3]: 3.93 G/DL | ALKALINE PHOSPHATASE [3]: 342 u/L | ASPARTATE AMINOTRANSFERASE [3]: 87.67 u/L | BLOOD UREA NITROGEN [3]: 14.67 mg/dL | CARBON DIOXIDE [3]: 34 mmol/L | CHLORIDE [3]: 99.5 MEQ/L | CHOLESTEROL [3]: 78.33 mg/dL | CREATINE PHOSPHOKINASE [3]: 245 u/L | CREATININE [3]: 0.15 mg/dL | GLUCOSE [3]: 170.67 mg/dL | LACTATE DEHYDROGENASE [3]: 145 u/L | LIPASE [3]: 12.67 u/L | PHOSPHORUS [3]: 10.53 mg/dL | POTASSIUM [3]: 5.47 MEQ/L | SODIUM [3]: 141.95 MEQ/L | TOTAL BILIRUBIN [3]: 0.17 mg/dL | TOTAL PROTEIN [3]: 5.57 G/DL | URIC ACID [3]: 0.67 mg/dL
